# No end group written: not given here.
# What was measured:
# [1] = tested on: intracellular calcium levels in human spermatozoa; test: Intracellular calcium measurement of human spermatozoa (Fluo-3-AM); format: cell-based; conditions: intact sperm, Fluo-3-AM 2 µM; 4 µM ED-TMR 30 min before 15 µM progesterone; three experiments
# Description: Calcium levels were measured in sperm suspensions using the intracellular fluorescent probe Fluo-3-AM. Motile sperm were adjusted to a concentration of 5–10 ×10^6 cells/ml and loaded with the permeable form of the dye (Fluo-3-AM, 2 µM) for 30 min at 37°C. Cells were washed once and resuspended in HTF. Sperm suspensions were transferred to thermostated (37°C) cuvettes for fluorescence measurements and stirred constantly. At the indicated times, 15 µM progesterone was added to the samples. When indicated, sperm where incubated 30 min in presence of 4 µM of the permeable tetramethylrhodamine-labeled MARCKS ED (ED-TMR) before adding progesterone. Fluo-3 fluorescence (λEx = 505 nm, λEm = 525 nm emission) was recorded in an AMINCO-Bowman Series 2 (AB2) spectrofluorometer. […] To calibrate the maximal response, intracellular calcium concentration ([Ca^2+]i) was determined using Triton X-100 (0.1%). […]
# Figure 5 Assessing MARCKS function on acrosomal exocytosis in non-permeabilized sperm. […] The increase in fluorescence is expressed as (F/F0)-1 ((maximum fluorescence intensity/initial fluorescence)-1) versus time in seconds. […] (D) Quantification of three independent experiments. […] Phosphorylated MARCKS was detected by Western blot assay using an anti-phospho-MARCKS antibody. […] Phosphorylated MARCKS was detected by Western blot assay using an anti-phospho-MARCKS antibody. […]
# [2] = tested on: living human sperm; test: Permeation of ED-TMR into non-permeabilized human sperm (fluorescence microscopy, trypsin treatment before fixation); format: cell-based; conditions: 4 µM ED-TMR 30 min 37°C, then 0.5 µg/ml trypsin 30 min 37°C before fixation
# Description: So far all results were obtained using the SLO-permeabilized human sperm model. […] Fortunately, MARCKS ED meets this requirement and it can be assayed in acrosomal exocytosis in non-permeabilized sperm. To investigate the function of MARCKS in intact cells, we analyzed the effect of a permeable peptide corresponding to wt MARCKS ED in living human sperm. We used a commercial MARCKS peptide, the tetramethylrhodamine-conjugated peptide sequence KKRFSFKKSFKL (ED-TMR) derived from amino acid residues 154 –165 of human MARCKS ED, which retains the first two of the four serine residues in the ED (see peptide scheme in Fig. 3A). First, we determined the permeability of ED-TMR in living human sperm (see Fig. S3). To rule out that the translocation of the protein was a fixation artifact, cells were treated with trypsin before fixation. […] A similar permeable MARCKS peptide has been used in sea urchin sperm and it was found enriched in the acrosome region.
# Supplementary file pone.0064551.s003.tif: Figure S3 MARCKS peptide permeates into non-permeabilized sperm. (A) Non-permeabilized sperm were treated for 30 minutes at 37°C with 4 µM permeable MARCKS ED domain (ED-TMR) and then incubated with (+) or without (-) 0.5 µg/ml trypsin for 30 minutes at 37°C. […] (B) Quantification of tetramethylrhodamine-labeled acrosome sperm. At least 300 cells were scored. […]
sequence,measurement,setting,value
"KKRFSFKKSFKL (also: tetramethylrhodamine conjugate, site not given here) [ED-TMR, commercial (Anaspec) tetramethylrhodamine-conjugated peptide … from residues 154–165 of human MARCKS ED]",effect on the increase in calcium levels caused by progesterone,[1],significantly diminished
same,permeability of ED-TMR in living human sperm (localisation),[2],detected mainly in the head of human sperm

# — article PMC3660367, “MARCKS Protein Is Phosphorylated and Regulates Calcium Mobilization during Human Acrosomal Exocytosis” (PLoS ONE, 2013)
